What was measured:
Crabgrass (CG) [1] = assay: Pre-emergence herbicide test; format: in vivo, Digitaria sanquinalis; conditions: Digitaria sanguinalis, pre-emergence, 336 h, two weeks after treatment
How it was run: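 Crabgrass (Digitaria sanquinalis) was surface seeded in 3' plastic pots of potting soil, covered with screened soil, and watered by sub-irrigation in greenhouse trays. Pots were seeded one day before spraying in a hood with a moving belt and fixed nozzle. Plants stayed in the greenhouse on sub-irrigation, and pre-emergence control was rated visually two weeks after treatment.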

Johnson grass (JG) [2] = assay: Pre-emergence herbicide test; format: in vivo, Sorgum helepense; conditions: Sorghum halepense, 336 h, two weeks after treatment
How it was run: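 Visual injury or control rating two weeks post-treatment, after pre-emergence spray of 8 or 4 lbs active per acre (38 gal/acre) onto pots sown the previous day. Greenhouse watering by sub-irrigation only.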

Barnyard grass (BG) [3] = assay: Pre-emergence herbicide test; format: in vivo; conditions: Echinochloa crus-galli, 336 h, 2 lb/acre, two weeks after treatment
How it was run: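 Greenhouse pre-emergence spray test: pots seeded one day before treatment received compound at rates of 8 or 4 lb/acre (38 gal/acre). Visual injury/control scores for Echinochloa crus-galli taken at two weeks, with watering by sub-irrigation only.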

Amaranth pigweed (PW) [4] = assay: Pre-emergence herbicide test; format: in vivo, Amaranthus retroflexus; conditions: 336 h, two weeks after treatment
How it was run: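 Visual injury or control ratings were made at two weeks on pre-emergence pots, sub-irrigated in the greenhouse. Seeds were sown a day before a hood spray delivering 8 lbs/acre (or 4 lbs/acre) of compound in 38 gallons per acre.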

Turnip (TP) [5] = assay: Pre-emergence herbicide test; format: in vivo, Brassica sp.; conditions: Brassica rapa, pre-emergence, 336 h, two weeks after treatment
How it was run: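 In this pre-emergence greenhouse test, turnip was seeded on the surface of potting soil in 3' plastic pots, lightly covered with screened soil, and watered from below. One day later the pots were sprayed in a belt-fed spray hood. Watering continued only by sub-irrigation, and percent control was visually scored two weeks after treatment.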

Cotton (CT) [6] = assay: Pre-emergence herbicide test; format: in vivo, Gossypium hirsutum var. DPL smooth leaf; conditions: Gossypium hirsutum, 336 h, two weeks after treatment
How it was run: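 Visual injury/control ratings were taken at two weeks post-spray. Pots seeded a day earlier received compound pre-emergence at 8 lbs/acre, or 4 lbs/acre, in a 38 gallon/acre spray volume, and were then held in the greenhouse, watered only from below.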

Corn (CN) [7] = assay: Pre-emergence herbicide test; format: in vivo; conditions: Zea mays, 336 h, two weeks after treatment
How it was run: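 Visual injury/control ratings were made 2 weeks post-spray on corn pots seeded (4 seeds, seed-diameter depth) the day before treatment. Application was a belt-hood spray of 38 gal/acre delivering 8 lbs active per acre, with a 4 lbs/acre rate also formulated. Watering was by sub-irrigation throughout.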

Bean (BN) [8] = assay: Pre-emergence herbicide test; format: in vivo, Phaseolus vulgaris var. Black Valentine; conditions: Phaseolus vulgaris, 336 h, two weeks after treatment
How it was run: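 Visual injury/control ratings were taken two weeks post-spray on sub-irrigated Phaseolus vulgaris var. Black Valentine. Pots were sown a day before treatment. Pre-emergence spray delivered 8 lbs actual compound per acre (or 4 lbs/acre) at 38 gallons per acre.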

Crabgrass (CG) [9] = assay: Post-emergence herbicide test; format: in vivo, Digitaria sanquinalis; conditions: Digitaria sanguinalis, post-emergence, 336 h, two weeks after treatment
How it was run: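 Crabgrass (Digitaria sanquinalis) was surface seeded individually in 3' plastic pots of potting soil, covered with screened soil, and watered by sub-irrigation in greenhouse trays. Planting was staggered so seedlings reached the target stage together. Post-emergence sprays were applied in a hood with a removable belt and fixed nozzle, and control was visually rated two weeks after treatment.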

Johnson grass (JG) [10] = assay: Post-emergence herbicide test; format: in vivo, Sorgum helepense; conditions: Sorghum halepense, 336 h, two weeks after treatment
How it was run: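 Visual injury or control scores taken 2 weeks after a post-emergence spray of pot-grown plants. Application was 8 lbs/acre (or 4 lbs/acre) in 38 gal/acre. Plants were held in the greenhouse with sub-irrigation only.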

Barnyard grass (BG) [11] = assay: Post-emergence herbicide test; format: in vivo; conditions: Echinochloa crus-galli, 336 h, 2 lb/acre, two weeks after treatment
How it was run: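 Greenhouse pot-grown barnyard grass seedlings sprayed post-emergence at 8 lbs active compound per acre (some at 4 lbs/acre) in 38 gallons per acre, then sub-irrigated. Injury or control rated visually two weeks after treatment.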

Amaranth pigweed (PW) [12] = assay: Post-emergence herbicide test; format: in vivo, Amaranthus retroflexus; conditions: 336 h, two weeks after treatment
How it was run: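 Visual injury or control ratings were made two weeks after spraying, with greenhouse watering by sub-irrigation only. Treatment was post-emergence, when pigweed seedlings had 1 or 2 true leaves, at 8 lbs active compound per acre (4 lbs/acre formulations also made) in a 38 gallons-per-acre spray volume.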

Turnip (TP) [13] = assay: Post-emergence herbicide test; format: in vivo, Brassica sp.; conditions: Brassica rapa, post-emergence, 336 h, two weeks after treatment
How it was run: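 A greenhouse post-emergence herbicide test on turnip. Seeds were sown on the surface of potting soil in 3' plastic pots, lightly covered with screened soil and watered from below. Planting was timed so seedlings had 1 or 2 true leaves above the cotyledons at spraying, done in a hood with a fixed nozzle. Control or injury was scored by eye after two weeks.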

Cotton (CT) [14] = assay: Post-emergence herbicide test; format: in vivo, Gossypium hirsutum var. DPL smooth leaf; conditions: Gossypium hirsutum, post-emergence, 336 h, two weeks after treatment
How it was run: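 This greenhouse post-emergence test measured how well spray treatments controlled cotton. Seedlings of Gossypium hirsutum var. DPL smooth leaf, with expanded cotyledons and a first true leaf 1' in length, were sprayed with 50 ml formulations in a belt-fed spray hood. They were then returned to the greenhouse and watered only by sub-irrigation. Injury was scored visually as % control after two weeks.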

Corn (CN) [15] = assay: Post-emergence herbicide test; format: in vivo; conditions: Zea mays, 336 h, two weeks after treatment
How it was run: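 Greenhouse seedlings grown in potting soil and sprayed post-emergence at 8 lbs compound/acre (formulations also made for 4 lbs/acre) in 38 gallons/acre spray volume. Watering by sub-irrigation only. Injury or control rated visually two weeks after treatment.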

Bean (BN) [16] = assay: Post-emergence herbicide test; format: in vivo, Phaseolus vulgaris var. Black Valentine; conditions: Phaseolus vulgaris, post-emergence, 336 h, two weeks after treatment
How it was run: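 Bean seedlings (Phaseolus vulgaris var. Black Valentine) were grown in potting soil in 3' pots until the primary leaves expanded. They were then sprayed under a hood with a removable belt and fixed nozzle, using 50 ml formulations. Afterward they were returned to the greenhouse and watered only by sub-irrigation. Percent control was judged visually two weeks after treatment.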

Compound `CNC(=O)Nc1nnc(C(F)(F)C(F)(F)F)s1` [Example 68] has a pest or weed control (Crabgrass (CG) [1]; 2 lb/acre) of 50%, a pest or weed control at 4483.4 g/ha (Crabgrass (CG) [1]; 4 lb/acre) of 90% and a pest or weed control at 2241.7 g/ha (Johnson grass (JG) [2]; 2 lb/acre) of 20%. The pest or weed control at 4483.4 g/ha (Johnson grass (JG) [2]; 4 lb/acre) was 30%, the pest or weed control at 2241.7 g/ha (Barnyard grass (BG) [3]) was 30% and the pest or weed control at 2241.7 g/ha (Amaranth pigweed (PW) [4]; 2 lb/acre) was 100%. It also gave a pest or weed control at 4483.4 g/ha (Amaranth pigweed (PW) [4]; 4 lb/acre) of 100%, a pest or weed control at 2241.7 g/ha (Turnip (TP) [5]; 2 lb/acre) of 60% and a pest or weed control at 4483.4 g/ha (Turnip (TP) [5]; 4 lb/acre) of 60%. For the same compound, the pest or weed control at 2241.7 g/ha (Cotton (CT) [6]; 2 lb/acre) was 60%, the pest or weed control at 4483.4 g/ha (Cotton (CT) [6]; 4 lb/acre) was 90% and the pest or weed control at 2241.7 g/ha (Corn (CN) [7]; 2 lb/acre) was 30%. It also gave a pest or weed control at 4483.4 g/ha (Corn (CN) [7]; 4 lb/acre) of 50%, a pest or weed control at 2241.7 g/ha (Bean (BN) [8]; 2 lb/acre) of 0% and a pest or weed control at 4483.4 g/ha (Bean (BN) [8]; 4 lb/acre) of 100%. For the same compound, the pest or weed control (Crabgrass (CG) [9]; 2 lb/acre) was 90%, the pest or weed control at 4483.4 g/ha (Crabgrass (CG) [9]; 4 lb/acre) was 100% and the pest or weed control (Johnson grass (JG) [10]; 2 lb/acre) was 80%. It also gave a pest or weed control at 4483.4 g/ha (Johnson grass (JG) [10]; 4 lb/acre) of 80%, a pest or weed control at 2241.7 g/ha (Barnyard grass (BG) [11]) of 60% and a pest or weed control at 2241.7 g/ha (Amaranth pigweed (PW) [12]; 2 lb/acre) of 100%. The pest or weed control at 4483.4 g/ha (Amaranth pigweed (PW) [12]; 4 lb/acre) was 100%, the pest or weed control at 2241.7 g/ha (Turnip (TP) [13]; 2 lb/acre) was 100% and the pest or weed control at 4483.4 g/ha (Turnip (TP) [13]; 4 lb/acre) was 100%. For the same compound, the pest or weed control at 2241.7 g/ha (Cotton (CT) [14]; 2 lb/acre) was 80%, the pest or weed control at 4483.4 g/ha (Cotton (CT) [14]; 4 lb/acre) was 100% and the pest or weed control (Corn (CN) [15]; 2 lb/acre) was 50%. For the same compound, the pest or weed control at 4483.4 g/ha (Corn (CN) [15]; 4 lb/acre) was 100%, the pest or weed control at 2241.7 g/ha (Bean (BN) [16]; 2 lb/acre) was 90% and the pest or weed control at 4483.4 g/ha (Bean (BN) [16]; 4 lb/acre) was 100%.

From patent US4175081A, “5-Substituted thiadiazole ureas” (priority 1977, dated 1979)
